# Several values for one entry are separate records, joined by “and”; a condition that tells them apart may be missing. Equal values may be shown once.
# What was measured:
# [1] = target: HEIP mutant ZF degron fused to EGFP (Homo sapiens, UniProt Q96SW2+Q9UKT9, N149E/Q147H/Q150I/S154P); experiment: Ratiometric EGFP:mCherry flow cytometry degradation assay, 18 h
# [2] = target: FEVP mutant ZF degron fused to EGFP (Homo sapiens, UniProt Q96SW2+Q9UKT9, N149E/Q147F/Q150V/S154P); experiment: as above
# Sequence of FEVP mutant ZF degron fused to EGFP (Q9UKT9 130-189 Q147F/N149E/Q150V/S154P): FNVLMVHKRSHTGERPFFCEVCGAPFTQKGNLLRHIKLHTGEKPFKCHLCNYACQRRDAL
# Sequence of FEVP mutant ZF degron fused to EGFP (Q96SW2 whole entry, the tested form may be a part): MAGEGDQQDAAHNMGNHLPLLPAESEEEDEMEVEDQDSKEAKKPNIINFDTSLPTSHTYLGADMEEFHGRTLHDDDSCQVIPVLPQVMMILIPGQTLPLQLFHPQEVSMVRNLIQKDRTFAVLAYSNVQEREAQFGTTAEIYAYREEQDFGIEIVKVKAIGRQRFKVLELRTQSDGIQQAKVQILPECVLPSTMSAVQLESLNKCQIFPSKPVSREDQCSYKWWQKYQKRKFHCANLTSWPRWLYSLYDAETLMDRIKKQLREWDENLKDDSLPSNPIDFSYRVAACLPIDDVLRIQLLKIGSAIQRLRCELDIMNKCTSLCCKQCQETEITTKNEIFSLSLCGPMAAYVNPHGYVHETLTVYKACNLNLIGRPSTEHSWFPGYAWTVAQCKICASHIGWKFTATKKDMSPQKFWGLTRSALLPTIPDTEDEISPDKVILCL
# Sequence of FEVP mutant ZF degron fused to EGFP (Q16531 whole entry partner, the tested form may be a part): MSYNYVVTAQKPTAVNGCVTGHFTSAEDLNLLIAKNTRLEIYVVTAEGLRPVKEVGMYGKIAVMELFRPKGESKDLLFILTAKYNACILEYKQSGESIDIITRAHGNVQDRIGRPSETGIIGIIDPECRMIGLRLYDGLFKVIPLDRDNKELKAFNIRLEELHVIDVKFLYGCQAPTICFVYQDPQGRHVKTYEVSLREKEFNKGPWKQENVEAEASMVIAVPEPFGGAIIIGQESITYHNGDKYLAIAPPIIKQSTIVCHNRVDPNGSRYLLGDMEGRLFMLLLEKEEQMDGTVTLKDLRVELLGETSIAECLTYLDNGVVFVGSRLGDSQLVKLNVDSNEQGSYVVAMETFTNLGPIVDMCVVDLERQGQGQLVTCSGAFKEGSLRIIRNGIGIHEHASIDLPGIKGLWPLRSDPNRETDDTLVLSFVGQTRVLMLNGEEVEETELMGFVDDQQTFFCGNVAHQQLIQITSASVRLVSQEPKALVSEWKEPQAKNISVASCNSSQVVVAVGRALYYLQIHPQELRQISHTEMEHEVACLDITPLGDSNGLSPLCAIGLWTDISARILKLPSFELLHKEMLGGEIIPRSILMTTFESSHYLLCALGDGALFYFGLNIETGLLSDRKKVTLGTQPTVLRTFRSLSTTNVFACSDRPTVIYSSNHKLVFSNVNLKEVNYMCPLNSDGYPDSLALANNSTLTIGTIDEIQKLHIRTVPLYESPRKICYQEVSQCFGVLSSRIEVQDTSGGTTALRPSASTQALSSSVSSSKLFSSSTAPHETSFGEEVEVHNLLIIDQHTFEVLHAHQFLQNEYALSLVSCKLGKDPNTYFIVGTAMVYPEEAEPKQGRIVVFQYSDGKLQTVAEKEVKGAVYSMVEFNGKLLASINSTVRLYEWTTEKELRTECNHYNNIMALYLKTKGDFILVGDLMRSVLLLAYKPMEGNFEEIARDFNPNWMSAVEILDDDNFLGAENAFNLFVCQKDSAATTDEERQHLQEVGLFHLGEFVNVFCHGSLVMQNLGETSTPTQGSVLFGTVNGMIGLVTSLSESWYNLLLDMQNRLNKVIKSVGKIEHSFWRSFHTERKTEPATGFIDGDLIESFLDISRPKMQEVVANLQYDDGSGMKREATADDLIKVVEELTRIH
# [3] = target: FDIP mutant ZF degron fused to EGFP (Homo sapiens, UniProt Q96SW2+Q9UKT9, N149D/Q147F/Q150I/S154P); experiment: as above
# Sequence of FDIP mutant ZF degron fused to EGFP (Q9UKT9 130-189 Q147F/N149D/Q150I/S154P): as the sequence (Q9UKT9 130-189 Q147F/N149E/Q150V/S154P) above, with E20D, V21I counted along it
# Sequence of FDIP mutant ZF degron fused to EGFP (Q96SW2 whole entry, the tested form may be a part): as the sequence (Q96SW2 whole entry, the tested form may be a part) above
# Sequence of FDIP mutant ZF degron fused to EGFP (Q16531 whole entry partner, the tested form may be a part): as the sequence (Q16531 whole entry partner, the tested form may be a part) above
# [4] = target: T1, TRIM28 with N-terminal WEIS degron tag and HiBit tag (Homo sapiens, UniProt Q96SW2+Q9UKT9, N149E/Q147W/Q150I); experiment: HiBiT luminescence degradation assay; format: cell-based; conditions: Jurkat, 24 h
# T1 construct: pLVX-Sprout-IKZF3 130-189aa Q147W N149E Q150I (WEIS); TRIM28 (fusion partner / protein of interest, gene TRIM28, human entry Q13263 by my knowledge); expressed in transfected cells; host or cells: Jurkat, lentiviral transduction; endogenous TRIM28 knocked out by CRISPR
# T1 sequence (Q9UKT9 130-189 Q147W/N149E/Q150I): as the sequence (Q9UKT9 130-189 Q147F/N149E/Q150V/S154P) above, with F18W, V21I, P25S counted along it
# T1 sequence (Q96SW2 whole entry, the tested form may be a part): as the sequence (Q96SW2 whole entry, the tested form may be a part) above
# [5] = test system: Jurkat cells (TRIM28-transduced and untransduced); experiment: CellTiter-Glo cell viability assay; format: cell-based, human; conditions: 100 pM – 10 μM, 24 h
# Description: Figure S22. CellTiter-Glo assay to assess cell viability of Jurkat cells lentivirally transduced with TRIM28 with either N-terminal or C-terminal WEIS degron tag (or untagged control) and HiBit peptide tag, then incubated (alongside untransduced Jurkat cells) with a concentration curve of […]
# (1 picture or pasted object on this page, not shown here) […]
# mixed with the Cas9 RNPs and then electroporated using a 4D-Nucleofector (Lonza) on pulse code CL-120. Estimation of knockout efficiency was performed by PCR amplification of the sgRNA target site using primers described in ‘PCR primers for amplifying sgRNA target site’ below. PCR products were Sanger sequenced and editing efficiency was assessed using the online […]
# HiBit and CellTiter-Glo® (CTG) Assays […]
# spanning 169 pM–10 μM (final assay concentration). […]
# HiBit signal was measured by adding 25 µL of the lytic detection reagent from the Nano-Glo® HiBiT Extracellular Detection System (Promega), prepared as per manufacturer protocol. […] Both assays were read using PHERAstar microplate luminescence reader (BMG Labtech). The data have been expressed as % of DMSO control and represent three independent biological replicates. […]
# signal was measured by adding 40 µL of the Nano-Glo lytic detection reagent (Promega),
# [6] = target: WDIA mutant ZF degron fused to EGFP (Homo sapiens, UniProt Q96SW2+Q9UKT9, N149D/Q147W/Q150I/S154A); experiment: Ratiometric EGFP:mCherry flow cytometry degradation assay, 18 h
# Sequence of WDIA mutant ZF degron fused to EGFP (Q9UKT9 130-189 Q147W/N149D/Q150I/S154A): as the sequence (Q9UKT9 130-189 Q147F/N149E/Q150V/S154P) above, with F18W, E20D, V21I, P25A counted along it
# Sequence of WDIA mutant ZF degron fused to EGFP (Q96SW2 whole entry, the tested form may be a part): as the sequence (Q96SW2 whole entry, the tested form may be a part) above
# Sequence of WDIA mutant ZF degron fused to EGFP (Q16531 whole entry partner, the tested form may be a part): as the sequence (Q16531 whole entry partner, the tested form may be a part) above
# HA-NanoLuc-WEIS = target: T2, HA-NanoLuc-WEIS (Homo sapiens, UniProt Q96SW2+Q9UKT9, N149E/Q147W/Q150I); experiment: Nano-Glo luminescence assay in HEK293T cells; format: cell-based; conditions: NanoGlo
# T2 construct: pLVX-Sprout-IKZF3 130-189aa Q147W N149E Q150I (WEIS); expressed in transfected cells; host or cells: HEK293T, lentiviral transduction, puromycin-selected
# T2 sequence (Q9UKT9 130-189 Q147W/N149E/Q150I): as the sequence (Q9UKT9 130-189 Q147F/N149E/Q150V/S154P) above, with F18W, V21I, P25S counted along it
# T2 sequence (Q96SW2 whole entry): as the sequence (Q96SW2 whole entry, the tested form may be a part) above
# T2 sequence (Q16531 whole entry partner): as the sequence (Q16531 whole entry partner, the tested form may be a part) above
# Description: To this end, a nuclear protein, CDK9, and a cytoplasmic protein, HPRT1, were selected, in addition to a well-characterized enzyme capable of generating bioluminescence, NanoLuc. , Fusion constructs comprising a POI with an N-terminal HA tag linked to the POI by two glycine residues and a C-terminal WEIS motif linked to the POI by a flexible [sequence] linker region were exogenously expressed in HEK293T cells.
# Compound 23 (10 mM stock in DMSO) was serially diluted 10-fold to create an 5-point dilution spanning 1n M–10 μM (final assay concentration) and an untreated control, with all concentrations at 0.1% DMSO. HEK293T cells transduced with HA-NanoLuc-WEIS lentiviral vectors were seeded in white, opaque, flat-bottom 96-well plate (Falcon) at 2 × 10^4 cells per well in 40 µL
# incubating at rt for 3 minutes, then reading using an EnVision multimode plate reader
# (PerkinElmer). […] Three biological repeats
# were carried out for this assay, with each biological replicate plate comprising three replicate
# [7] = target: T3, WEIS-EGFP degron in Jurkat cells (Homo sapiens, UniProt Q96SW2+Q9UKT9, N149E/Q147W/Q150I); experiment: GFP degradation flow cytometry assay with proteasome inhibitor carfilzomib; format: cell-based; conditions: carfilzomib (1 μM) pre-incubation; 1-24 h
# T3 construct: pLVX-Sprout-IKZF3 130-189aa Q147W N149E Q150I (WEIS); expressed in transfected cells
# T3 sequence (Q9UKT9 130-189 Q147W/N149E/Q150I): as the sequence (Q9UKT9 130-189 Q147F/N149E/Q150V/S154P) above, with F18W, V21I, P25S counted along it
# T3 sequence (Q96SW2 whole entry): as the sequence (Q96SW2 whole entry, the tested form may be a part) above
# T3 sequence (Q16531 whole entry partner): as the sequence (Q16531 whole entry partner, the tested form may be a part) above
# [8] = target: T4, TRIM28 with C-terminal WEIS degron tag and HiBit tag (Homo sapiens, UniProt Q96SW2+Q9UKT9, N149E/Q147W/Q150I); experiment: HiBiT luminescence degradation assay; format: cell-based; conditions: Jurkat, 24 h
# T4 construct: pLVX-Sprout-IKZF3 130-189aa Q147W N149E Q150I (WEIS); TRIM28 (fusion partner / protein of interest, gene TRIM28, human entry Q13263 by my knowledge); expressed in transfected cells; host or cells: Jurkat, lentiviral transduction; endogenous TRIM28 knocked out by CRISPR
# T4 sequence (Q9UKT9 130-189 Q147W/N149E/Q150I): as the sequence (Q9UKT9 130-189 Q147F/N149E/Q150V/S154P) above, with F18W, V21I, P25S counted along it
# T4 sequence (Q96SW2 whole entry, the tested form may be a part): as the sequence (Q96SW2 whole entry, the tested form may be a part) above
# [9] = target: T5, WEIS-EGFP in 3T3 mouse cells (UniProt Q8C7D2+Q9UKT9, N149E/Q147W/Q150I); experiment: EGFP/mCherry flow cytometry degradation assay in 3T3 cells; format: cell-based; conditions: 18 h; compared to human cells
# T5 construct: IKZF3 130aa-142aa 170-189aa fused to EGFP; EGFP (fusion partner, via a linker); expressed in transfected cells; host or cells: 3T3 mouse cells, lentivirally transduced with WEIS-EGFP-IRES-mCherry (Artichoke-derived, Addgene #73320)
# T5 sequence (Q9UKT9 130-189 Q147W/N149E/Q150I): as the sequence (Q9UKT9 130-189 Q147F/N149E/Q150V/S154P) above, with F18W, V21I, P25S counted along it
# T5 sequence (Q8C7D2 whole entry, the tested form may be a part): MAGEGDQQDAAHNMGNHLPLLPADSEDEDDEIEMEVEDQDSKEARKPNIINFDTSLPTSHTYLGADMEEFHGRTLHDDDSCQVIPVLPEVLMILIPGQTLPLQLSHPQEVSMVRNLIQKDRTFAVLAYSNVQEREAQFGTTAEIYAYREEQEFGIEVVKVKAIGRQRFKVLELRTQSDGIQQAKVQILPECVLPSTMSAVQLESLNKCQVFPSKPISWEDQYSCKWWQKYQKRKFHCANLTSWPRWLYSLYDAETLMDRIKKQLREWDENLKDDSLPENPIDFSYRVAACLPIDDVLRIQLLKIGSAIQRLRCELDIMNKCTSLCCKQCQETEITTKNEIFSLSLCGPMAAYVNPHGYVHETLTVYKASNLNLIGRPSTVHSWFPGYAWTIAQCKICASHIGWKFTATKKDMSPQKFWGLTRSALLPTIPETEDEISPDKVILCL
# T5 sequence (Q3U1J4 whole entry partner, the tested form may be a part): as the sequence (Q16531 whole entry partner, the tested form may be a part) above, with N418G, A495G, T745S, T1020A counted along it
# Description: It is also noteworthy that this system is not yet optimized for use in mouse cells, as mouse cereblon contains a key V388I mutation that prevents IMiD-induced recruitment of ZF neosubstrates. […] We anticipate that mutations could be introduced to this degron to make it mouse-compatible for future in vivo studies.
# Figure S24. Dose response curve for 3T3 mouse cells lentivirally transduced with WEIS-EGFP-
# IRES-mCherry incubated with a concentration curve of compound 23 (1pM – 10 μM) for 18 h and
# analyzed by flow cytometry.
# (1 picture or pasted object on this page, not shown here)
# Sequence of HEIP mutant ZF degron fused to EGFP (Q9UKT9 130-189 Q147H/N149E/Q150I/S154P): as the sequence (Q9UKT9 130-189 Q147F/N149E/Q150V/S154P) above, with F18H, V21I counted along it
# Sequence of HEIP mutant ZF degron fused to EGFP (Q96SW2 whole entry, the tested form may be a part): as the sequence (Q96SW2 whole entry, the tested form may be a part) above
# Sequence of HEIP mutant ZF degron fused to EGFP (Q16531 whole entry partner, the tested form may be a part): as the sequence (Q16531 whole entry partner, the tested form may be a part) above
compound,measurement,setting,value
CC(C)(C)c1ccc2c(c1)C(=O)N(C1CCC(=O)NC1=O)C2=O (stereo not shown) [Compound 19],Selectivity (WT/mutant),[1]; DC50(WT)/DC50(HEIP),25 and 25.1
same,DC50,"[1]; HEIP, Jurkat, 18 h",0.0302 µM
same,pDC50,"[1]; HEIP, Jurkat, 18 h",7.52
same,Selectivity (WT/mutant),[2]; DC50(WT)/DC50(FEVP),15.1
same,DC50,"[2]; FEVP, Jurkat, 18 h",0.0501 µM
same,pDC50,"[2]; FEVP, Jurkat, 18 h",7.30
same,Selectivity (WT/mutant),[3]; DC50(WT)/DC50(FDIP),12.0
same,DC50,"[3]; FDIP, Jurkat, 18 h",0.0631 µM
same,pDC50,"[3]; FDIP, Jurkat, 18 h",7.20
CN1CCN(c2ccc3c(c2)C(=O)N(C2CCC(=O)NC2=O)C3=O)CC1 (stereo not shown) [Compound 23],D max,[4],66%
same,DC50,[4],1.27 µM
same,cell viability,[5],did not affect the cell viability
same,Selectivity (WT/mutant),[6]; DC50(WT)/DC50(WDIA),22.0
same,DC50,"[6]; WDIA, Jurkat, 18 h",0.0288 µM
same,pDC50,"[6]; WDIA, Jurkat, 18 h",7.54
same,D max,HA-NanoLuc-WEIS; 6 h,53%
same,D max,HA-NanoLuc-WEIS; 18 h,35%
same,DC50,HA-NanoLuc-WEIS; 18 h,0.29 µM
same,WEIS-EGFP degradation with carfilzomib,[7],rescued
same,DC50,[8],0.125 µM
same,D max,[8]; with 10 μM,83%
same,WEIS-EGFP degradation in 3T3 mouse cells,[9],modest levels of WEIS-EGFP degradation

# Source: paper PMC12645437, “Orthogonal IMiD-Degron Pairs Induce Selective Protein Degradation in Cells” (ACS Chemical Biology, 2025)
